Assay results published in patent publication US20250234861A1, “LACTONES FOR ENHANCING THE ACTIVITY OF ANTIMICROBIAL AGENTS” (BASF SE, priority 2021, published 2025).

Key:
Assay type in all cases: cell-based
[1] = system: fungal mix consisting of Aspergillus brasiliensis DSM 1988, Rhodotorula mucilaginosa DSM 13621, Yarrowialipolytica DSM 8218; assay: Example 1.2: preservative activity in a manual dishwashing composition (MDW, pH 7.1) using 2-phenoxyethanol (PE), fungal challenge; conditions: for d7 CFU: day 7; for d14 CFU: day 14; for d21 CFU: day 21
Method: (§1) A manual dish wash detergent (MWD) of pH 7.1 containing the following components was used:
(§2) The samples were contaminated with a fungal mix consisting of: • Aspergillus brasiliensis DSM 1988 • Rhodotorula mucilaginosa DSM 13621 • Yarrowialipolytica DSM 8218
(§3) The samples were inoculated with the fungal mix at day 0 and 7 to obtain 1-3×10E+05 CFU/ml inoculation in the test sample consisting of the above-defined dish wash detergent MDW and stored at 25° C. for 21 days. CFU was determined before re-inoculation at day 7, and on days 14 and 21.
(§4) Any CFU value at d7, d14 or d21 obtained with a MDW sample of the invention containing 2-phenoxyethanol and lactone (MDW+1.0% PE+x % of Lactone) lower than the respective value of the “comparative 2” example (MDW+1.0% by weight of 2-Phenoxyethanol) indicates a better performance of the inventive combination of 2-phenoxyethanol with the lactone.

[2] = system: bacterial mix consisting of Escherichia coli DSM 1576, Alcaligenes faecalis DSM 13644, Pseudomonas aeruginosa ATCC 15442, Staphylococcus aureus ATCC 6538 …; assay: Example 2.3: preservative activity of a basic composition (pH 7, 10% PG) using 1,2-benzisothiazol-3(2H)-one (BIT), bacterial challenge; conditions: day 7
Method: An aqueous composition of pH 7 comprising 10% by weight of propyleneglycol (PG) as organic solvent, 0.004% by weight of 1,2-benzisothiazol-3(2H)-one (BIT) as antimicrobial and the lactone listed in the below table was tested for its preserving activity against bacterial contamination (the weight percentages relate to the total weight of the composition). For this purpose, the samples were contaminated with a bacterial mix consisting of: • Escherichia coli DSM 1576 • Alcaligenes faecalis DSM 13644 • Pseudomonas aeruginosa ATCC 15442 • Staphylococcus aureus ATCC 6538 • Burkholderia cepacia DSM 7288 • Pseudomonas putida DSM 12735
The samples were inoculated with the bacterial mix at day 0 to obtain 10E+06 to 10E+07 CFU/ml inoculation in the test sample and stored at 25° C. for 7 days.
(§5) CFU was determined at day 7.
Any CFU value at day 7 (d7) obtained with a sample according to the invention containing BIT and lactone (10% PG+0.004% BIT+x % of Lactone) that is lower than the respective value of the “comparative 2” example (10% PG+0.004% BIT) indicates a better performance.

[3] = system: Pseudomonas aeruginosa ATCC 15442; assay: Example 2.4: preservative activity of a basic composition (pH 5, 10% PG) using sodium benzoate, bacterial challenge; conditions: day 7
Method: An aqueous composition of pH 5 comprising 10% by weight of propyleneglycol (PG) as organic solvent, sodium benzoate as antimicrobial and 0.18% by weight of γ-valerolactone was tested for its preserving activity against bacterial contamination (the weight percentages relate to the total weight of the composition). For this purpose, the samples were contaminated with a bacterial suspension of Pseudomonas aeruginosa ATCC 15442.
The samples were inoculated with the bacterial suspension at day 0 to obtain 6.1×10E+07 CFU/ml inoculation in the test sample and stored at 25° C. for 7 days.
as §5
Any CFU value at day 7 (d7) obtained with a sample according to the invention containing sodium benzoate and lactone (10% PG+x % sodium benzoate+0.18% of Lactone) lower than the respective value of the “comparative 2” example (10% PG+0.5% sodium benzoate) or “comparative 3” example (10% PG+0.85% sodium benzoate) indicates a better performance.

[4] = system: fungal mix consisting of Aspergillus brasiliensis DSM 1988, Rhodotorula mucilaginosa DSM 13621, Yarrowialipolytica DSM 8218; assay: Example 1.3: preservative activity in a manual dishwashing composition (MDW, pH 7.1) using 2-phenoxyethanol (PE), fungal challenge; conditions: for d7 CFU: day 7; for d14 CFU: day 14; for d21 CFU: day 21
Method: as §1, §2, §3, §4

[5] = system: bacterial mix consisting of Escherichia coli DSM 1576, Alcaligenes faecalis DSM 13644, Pseudomonas aeruginosa ATCC 15442, Staphylococcus aureus ATCC 6538 …; assay: Example 2.1: preservative activity in a manual dishwashing composition (MDW, pH 7.1) using 2-phenoxyethanol (PE), bacterial challenge; conditions: for d7 CFU: day 7; for d14 CFU: day 14; for d21 CFU: day 21
Method: as §1
The samples were contaminated with a bacterial mix consisting of: • Escherichia coli DSM 1576 • Alcaligenes faecalis DSM 13644 • Pseudomonas aeruginosa ATCC 15442 • Staphylococcus aureus ATCC 6538 • Burkholderia cepacia DSM 7288 • Pseudomonas putida DSM 12735
The samples were inoculated with the bacterial mix at day 0 and 7 to obtain 10E+06 to 10E+07 CFU/ml inoculation in the test sample and stored at 25° C. for 21 days. CFU was determined before re-inoculation at day 7 and on days 14 and 21.
Any CFU value at day 7 (d7), day 14 (d14) or day 21 (d21) obtained with a sample according to the invention containing 2-phenoxyethanol and lactone (MDW+1.0% PE+x % Lactone) lower than the respective value of the “comparative 2” example (MDW+1.0% by weight of 2-Phenoxyethanol) indicates a better performance.

[6] = MDW + 1.0% PE + 1% of lactone, fungal mix
[7] = MDW + 1.0% PE + 2% of lactone, fungal mix
[8] = MDW pH 7.1 + 1.0% of the substance alone (comparative), fungal mix inoculated day 0 and 7, 25° C.
[9] = MDW pH 7.1 + 1.0% of the substance alone (comparative), fungal mix
[10] = MDW + 1.0% PE + 1% of lactone, bacterial mix
[11] = MDW pH 7.1 + 1.0% of the substance alone (comparative), bacterial mix inoculated day 0 and 7, 25° C.
[12] = MDW pH 7.1 + 1.0% of the substance alone (comparative), bacterial mix

SMILES: CC1CCC(=O)O1 (centres unmarked) [γ-valerolactone]
- d7 CFU [1, 6]: 3,500 CFU
- d14 CFU [1, 6]: 3,600 CFU
- d21 CFU [1, 6]: 385 CFU
- d7 CFU [1, 7]: 85 CFU
- d14 CFU [1, 7]: 95 CFU
- d21 CFU [1, 7]: <10 CFU
- d7 CFU [1, 8]: 12,000 CFU
- d14 CFU [1, 8]: 24,500 CFU
- d21 CFU [1, 8]: 2,500 CFU
- d7 [CFU/ml] ([2]; 10% PG + 0.004% BIT + 0.04% of lactone): 145 CFU/ml
- d7 [CFU/ml] ([2]; 10% PG, pH 7 + 0.04% lactone alone (Comparative 1), 25° C.): >100,000 CFU/ml
- d7 [CFU/ml] ([3]; 10% PG + 0.5% sodium benzoate + 0.18% of lactone): 990 CFU/ml
- d7 [CFU/ml] ([3]; 10% PG + 0.85% sodium benzoate + 0.18% of lactone): 890 CFU/ml
- d7 [CFU/ml] ([3]; 10% PG, pH 5 + 0.18% lactone alone (Comparative 1), P. aeruginosa, 25° C.): >100,000 CFU/ml

SMILES: CCCCCC1CCC(=O)O1 (centres unmarked) [γ-nonalactone]
- d7 CFU [4, 6]: 4,100 CFU
- d14 CFU [4, 6]: 5,000 CFU
- d21 CFU [4, 6]: 150 CFU
- d7 CFU [4, 8]: >100,000 CFU
- d14 CFU [4, 9]: >100,000 CFU
- d21 CFU [4, 9]: >100,000 CFU

SMILES: O=c1[nH]sc2ccccc12 [BIT, 1,2-benzisothiazol-3(2H)-one, reference compound]
- d7 [CFU/ml] ([2]; 10% PG, pH 7 + 0.004% BIT alone (Comparative 2)): >100,000 CFU/ml

SMILES: CCCCCCC1CCC(=O)O1 (centres unmarked) [y-Decalactone]
- d7 CFU [5, 10]: <10 CFU
- d14 CFU [5, 10]: <10 CFU
- d21 CFU [5, 10]: <10 CFU
- d7 CFU [5, 11]: >100,000 CFU
- d14 CFU [5, 12]: >100,000 CFU
- d21 CFU [5, 12]: >100,000 CFU

SMILES: CCCCCCC1CCC(=O)O1 (centres unmarked) [γ-Decalactone]
- d7 CFU [4, 6]: 24,500 CFU
- d14 CFU [4, 6]: 13,000 CFU
- d21 CFU [4, 6]: 1200 CFU
- d7 CFU [4, 8]: >100,000 CFU
- d14 CFU [4, 9]: >100,000 CFU
- d21 CFU [4, 9]: >100,000 CFU

SMILES: CCCCCC1CCC(=O)O1 (centres unmarked) [Y-Nonalactone]
- d7 CFU [5, 11]: 8,400 CFU
- d14 CFU [5, 12]: >100,000 CFU
- d21 CFU [5, 12]: >100,000 CFU

SMILES: OCCOc1ccccc1 [Phenoxyethanol (PE)]
- d7 CFU [1, 8]: 34,500 CFU
- d14 CFU [1, 8]: 16,500 CFU
- d21 CFU [1, 8]: 3,800 CFU
- d7 CFU [4, 8]: >100,000 CFU
- d14 CFU [4, 9]: >100,000 CFU
- d21 CFU [4, 9]: >100,000 CFU
- d7 CFU [5, 11]: 625 CFU
- d14 CFU [5, 12]: >100,000 CFU
- d21 CFU [5, 12]: >100,000 CFU

SMILES: O=C([O-])c1ccccc1.[Na+] [sodium benzoate, reference compound]
- d7 [CFU/ml] ([3]; 10% PG, pH 5 + 0.5% sodium benzoate alone (Comparative 2)): >100,000 CFU/ml
- d7 [CFU/ml] ([3]; 10% PG, pH 5 + 0.85% sodium benzoate alone (Comparative 3)): >100,000 CFU/ml

SMILES: CCCCCC1CCC(=O)O1 (centres unmarked) [y-Nonalactone]
- d7 CFU [5, 10]: <10 CFU
- d14 CFU [5, 10]: <10 CFU
- d21 CFU [5, 10]: <10 CFU
